Like-named read-outs stand apart in the source and are kept apart here.
Legend:
Experiment in all cases: KinomeScan kinase panel, single concentration 10 µM
Type in all cases: binding
KinomeScan kinase panel [1] = molecular target: T1, KinomeScan kinase panel (Homo sapiens, UniProt Q8IVH8); settings: MAP4K3, 10 µM
T1 construct: purchased DiscoveRx (KinomeScan)
T1 sequence (Q8IVH8 1-894): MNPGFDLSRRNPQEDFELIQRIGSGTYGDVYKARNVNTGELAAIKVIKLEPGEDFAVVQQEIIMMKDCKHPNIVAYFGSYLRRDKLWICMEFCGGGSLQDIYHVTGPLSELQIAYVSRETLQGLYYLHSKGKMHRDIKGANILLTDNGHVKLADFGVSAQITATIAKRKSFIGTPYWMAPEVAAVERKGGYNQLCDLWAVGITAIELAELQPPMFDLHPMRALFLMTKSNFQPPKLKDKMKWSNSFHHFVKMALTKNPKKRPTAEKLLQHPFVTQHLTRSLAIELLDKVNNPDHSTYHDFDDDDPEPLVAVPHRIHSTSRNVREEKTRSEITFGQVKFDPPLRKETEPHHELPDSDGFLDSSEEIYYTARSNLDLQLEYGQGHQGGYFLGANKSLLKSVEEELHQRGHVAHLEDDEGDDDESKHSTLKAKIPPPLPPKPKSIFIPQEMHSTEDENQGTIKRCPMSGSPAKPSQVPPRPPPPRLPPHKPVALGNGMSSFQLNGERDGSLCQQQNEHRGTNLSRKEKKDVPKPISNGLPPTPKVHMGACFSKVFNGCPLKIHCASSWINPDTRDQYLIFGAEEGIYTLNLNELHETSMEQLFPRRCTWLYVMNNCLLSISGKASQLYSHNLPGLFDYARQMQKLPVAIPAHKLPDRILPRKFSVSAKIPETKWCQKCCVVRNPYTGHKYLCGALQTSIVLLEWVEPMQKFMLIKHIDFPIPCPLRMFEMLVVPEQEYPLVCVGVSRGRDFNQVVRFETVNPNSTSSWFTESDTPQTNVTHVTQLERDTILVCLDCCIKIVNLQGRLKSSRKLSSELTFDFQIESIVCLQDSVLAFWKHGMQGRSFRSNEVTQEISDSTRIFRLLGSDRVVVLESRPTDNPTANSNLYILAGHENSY

KinomeScan kinase panel [2] = molecular target: T2, KinomeScan kinase panel (Homo sapiens, UniProt Q9H0K1); settings: read-out: score (%)
T2 construct: purchased DiscoveRx (KinomeScan)
T2 sequence (Q9H0K1 whole entry): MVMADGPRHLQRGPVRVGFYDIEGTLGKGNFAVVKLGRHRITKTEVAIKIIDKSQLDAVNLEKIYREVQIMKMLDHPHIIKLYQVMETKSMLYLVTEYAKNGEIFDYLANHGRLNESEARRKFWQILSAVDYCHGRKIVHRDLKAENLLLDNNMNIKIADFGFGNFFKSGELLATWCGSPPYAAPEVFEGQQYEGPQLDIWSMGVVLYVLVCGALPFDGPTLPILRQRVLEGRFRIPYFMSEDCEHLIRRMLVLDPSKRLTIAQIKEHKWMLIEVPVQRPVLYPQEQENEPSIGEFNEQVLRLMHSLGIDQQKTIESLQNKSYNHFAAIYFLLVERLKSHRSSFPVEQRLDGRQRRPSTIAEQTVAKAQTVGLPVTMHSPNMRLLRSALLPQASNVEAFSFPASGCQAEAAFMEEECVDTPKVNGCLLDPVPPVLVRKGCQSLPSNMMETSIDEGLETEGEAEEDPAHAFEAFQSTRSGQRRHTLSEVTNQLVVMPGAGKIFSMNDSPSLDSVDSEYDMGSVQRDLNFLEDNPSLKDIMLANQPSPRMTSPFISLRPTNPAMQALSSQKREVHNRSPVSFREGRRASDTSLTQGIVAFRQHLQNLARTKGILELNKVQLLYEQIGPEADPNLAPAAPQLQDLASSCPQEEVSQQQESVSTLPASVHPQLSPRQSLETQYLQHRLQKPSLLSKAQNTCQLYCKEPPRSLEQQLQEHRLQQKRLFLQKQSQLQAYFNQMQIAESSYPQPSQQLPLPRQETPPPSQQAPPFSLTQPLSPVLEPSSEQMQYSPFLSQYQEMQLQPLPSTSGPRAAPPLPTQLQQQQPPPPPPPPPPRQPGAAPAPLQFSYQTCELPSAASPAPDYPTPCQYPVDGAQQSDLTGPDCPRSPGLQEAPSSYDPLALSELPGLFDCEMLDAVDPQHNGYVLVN

KinomeScan kinase panel [3] = molecular target: T3, KinomeScan kinase panel (Homo sapiens, UniProt Q9NRM7); settings: LATS2, 10 µM
T3 construct: purchased DiscoveRx (KinomeScan)
T3 sequence (Q9NRM7 1-1088): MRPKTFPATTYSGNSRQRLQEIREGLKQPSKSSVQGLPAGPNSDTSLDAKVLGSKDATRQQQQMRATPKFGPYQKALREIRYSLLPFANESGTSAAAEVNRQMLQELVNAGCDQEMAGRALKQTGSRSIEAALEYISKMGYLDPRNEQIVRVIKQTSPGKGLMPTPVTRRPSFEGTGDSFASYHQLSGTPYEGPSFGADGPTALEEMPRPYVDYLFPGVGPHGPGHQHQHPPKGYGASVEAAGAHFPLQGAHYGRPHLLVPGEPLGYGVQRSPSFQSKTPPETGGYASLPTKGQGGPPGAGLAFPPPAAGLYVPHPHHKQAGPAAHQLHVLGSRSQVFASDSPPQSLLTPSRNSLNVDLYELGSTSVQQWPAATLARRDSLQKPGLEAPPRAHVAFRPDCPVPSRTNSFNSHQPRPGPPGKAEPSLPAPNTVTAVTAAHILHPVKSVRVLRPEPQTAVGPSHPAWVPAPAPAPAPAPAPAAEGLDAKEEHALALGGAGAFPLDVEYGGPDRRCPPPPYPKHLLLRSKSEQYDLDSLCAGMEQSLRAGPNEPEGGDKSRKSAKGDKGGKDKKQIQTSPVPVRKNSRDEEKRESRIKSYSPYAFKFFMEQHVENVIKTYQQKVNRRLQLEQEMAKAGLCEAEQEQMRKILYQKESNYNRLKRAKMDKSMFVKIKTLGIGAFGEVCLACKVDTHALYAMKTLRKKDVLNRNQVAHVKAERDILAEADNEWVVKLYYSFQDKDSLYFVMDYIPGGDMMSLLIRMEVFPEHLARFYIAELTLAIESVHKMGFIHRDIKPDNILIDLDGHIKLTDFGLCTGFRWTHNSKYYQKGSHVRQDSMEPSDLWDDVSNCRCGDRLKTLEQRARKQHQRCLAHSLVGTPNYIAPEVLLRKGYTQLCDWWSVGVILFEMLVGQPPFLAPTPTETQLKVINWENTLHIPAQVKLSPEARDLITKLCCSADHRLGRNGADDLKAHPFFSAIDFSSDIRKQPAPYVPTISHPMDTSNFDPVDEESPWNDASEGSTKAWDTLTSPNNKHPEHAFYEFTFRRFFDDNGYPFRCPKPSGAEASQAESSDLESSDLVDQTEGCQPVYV

KinomeScan kinase panel [4] = molecular target: T4, KinomeScan kinase panel (Homo sapiens, UniProt P78368); settings: CSNK1G2, 10 µM
T4 construct: purchased DiscoveRx (KinomeScan)
T4 sequence (P78368 whole entry): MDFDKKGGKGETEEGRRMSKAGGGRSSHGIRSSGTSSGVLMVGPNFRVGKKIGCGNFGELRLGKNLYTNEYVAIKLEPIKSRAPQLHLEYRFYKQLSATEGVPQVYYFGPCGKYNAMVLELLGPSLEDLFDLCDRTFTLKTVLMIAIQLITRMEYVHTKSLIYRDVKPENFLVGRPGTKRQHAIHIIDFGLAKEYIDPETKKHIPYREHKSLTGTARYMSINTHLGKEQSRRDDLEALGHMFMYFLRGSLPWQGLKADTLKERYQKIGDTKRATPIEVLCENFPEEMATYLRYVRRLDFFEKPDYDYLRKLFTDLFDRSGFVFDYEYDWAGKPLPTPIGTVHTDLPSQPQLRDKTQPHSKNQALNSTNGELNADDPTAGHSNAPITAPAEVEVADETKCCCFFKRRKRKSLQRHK

KinomeScan kinase panel [5] = molecular target: T5, KinomeScan kinase panel (Homo sapiens, UniProt P00519, Y253F); settings: 10 µM, read-out: score (%)
T5 construct: purchased DiscoveRx (KinomeScan)

KinomeScan kinase panel [6] = molecular target: T6, KinomeScan kinase panel (Homo sapiens, UniProt P14616); settings: INSRR, 10 µM; read-out: score (%)
T6 construct: purchased DiscoveRx (KinomeScan)
T6 sequence (P14616 27-1297): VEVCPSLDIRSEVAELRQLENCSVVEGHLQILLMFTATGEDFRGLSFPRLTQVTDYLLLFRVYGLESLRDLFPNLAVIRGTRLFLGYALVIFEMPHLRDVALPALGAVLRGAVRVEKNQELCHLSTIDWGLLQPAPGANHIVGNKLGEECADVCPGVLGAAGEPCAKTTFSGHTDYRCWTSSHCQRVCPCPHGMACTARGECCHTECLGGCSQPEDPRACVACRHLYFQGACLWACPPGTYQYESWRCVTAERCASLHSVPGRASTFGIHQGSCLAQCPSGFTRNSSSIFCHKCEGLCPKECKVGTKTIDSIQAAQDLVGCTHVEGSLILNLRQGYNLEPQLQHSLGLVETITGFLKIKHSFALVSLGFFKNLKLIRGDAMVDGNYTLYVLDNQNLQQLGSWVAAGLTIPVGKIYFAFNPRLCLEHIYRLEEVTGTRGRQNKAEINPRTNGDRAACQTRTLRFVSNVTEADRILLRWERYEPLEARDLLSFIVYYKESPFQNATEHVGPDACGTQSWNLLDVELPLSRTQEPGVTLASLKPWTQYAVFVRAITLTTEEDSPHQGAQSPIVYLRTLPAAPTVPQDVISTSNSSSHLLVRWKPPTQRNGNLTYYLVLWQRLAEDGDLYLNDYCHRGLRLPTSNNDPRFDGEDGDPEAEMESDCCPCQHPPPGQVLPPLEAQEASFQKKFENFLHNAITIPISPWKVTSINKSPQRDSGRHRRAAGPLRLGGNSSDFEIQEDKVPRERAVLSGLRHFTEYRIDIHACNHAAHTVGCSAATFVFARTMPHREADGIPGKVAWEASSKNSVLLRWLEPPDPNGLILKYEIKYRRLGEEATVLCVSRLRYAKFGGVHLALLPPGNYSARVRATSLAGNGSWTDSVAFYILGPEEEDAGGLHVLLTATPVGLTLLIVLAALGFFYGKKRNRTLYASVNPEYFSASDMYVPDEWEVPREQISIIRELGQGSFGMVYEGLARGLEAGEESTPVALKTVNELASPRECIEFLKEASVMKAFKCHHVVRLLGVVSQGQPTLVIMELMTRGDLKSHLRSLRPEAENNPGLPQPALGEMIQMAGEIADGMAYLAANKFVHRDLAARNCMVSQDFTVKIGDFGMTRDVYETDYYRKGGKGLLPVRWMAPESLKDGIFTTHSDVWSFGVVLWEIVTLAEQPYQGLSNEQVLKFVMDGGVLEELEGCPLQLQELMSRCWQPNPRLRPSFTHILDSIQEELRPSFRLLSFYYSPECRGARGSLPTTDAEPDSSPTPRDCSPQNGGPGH

SMILES | score (%) (KinomeScan kinase panel [1]) | remaining binding at 10 µM (KinomeScan kinase panel [2]; kinase SIK2, 10 µM) | score (%) (KinomeScan kinase panel [3]) | score (%) (KinomeScan kinase panel [4]) | remaining binding at 10 µM (KinomeScan kinase panel [5]; ABL1(Y253F)) | remaining binding at 10 µM (KinomeScan kinase panel [6]) | remaining binding at 10 µM (KinomeScan kinase panel [5]; ABL1(Y253F)-phosphorylated) | remaining binding at 10 µM (KinomeScan kinase panel [2]; SNF1LK2, 10 µM)
CCN1CCN(Cc2ccc(NC(=O)c3ccc(C)c(NC(=O)c4cncc(-c5cccs5)c4)c3)cc2C(F)(F)F)CC1 [ALW-II-41-27] | 20% | 13% | nb (Hits values higher than 30% were considered negative (no binding: nb)) | 20% | 0.2% | 8.8% |  | 
CCN1CCN(Cc2ccc(NC(=O)c3ccc(C)c(C#Cc4cccnc4)c3)cc2C(F)(F)F)CC1 [XMD15-44] | 2.6% | 21% | 7.6% | nb (Hits values higher than 30% were considered negative (no binding: nb)) |  | > 30% | 0.15% | 
CCN1CCN(Cc2ccc(NC(=O)c3ccc(C)c(/C=C/c4cnc5[nH]ccc5c4Cl)c3)cc2C(F)(F)F)CC1 [HG-6-63-01, (E)-3-(2-(4-chloro-1H-pyrrolo[2,3-b]pyridin-5-yl)vinyl)-N-(4-((4-ethylpiperazin-1-yl)methyl)-3-(trifluoromethyl)phenyl)-4-methylbenzamide] | 4.2% |  | nb (Hits values higher than 30% were considered negative (no binding: nb)) | nb (Hits values higher than 30% were considered negative (no binding: nb)) | 0.1% | > 30% |  | 6.4%

From PMC4457528, “Identification of Novel Small Molecule Inhibitors of Oncogenic RET Kinase” (PLoS ONE, 2015)
